Experimental data published in the NIST ThermoML archive (doi:10.1021/je800048f).
Numbers after ± are expanded uncertainties.

Settings: 298.15 K, 101.33 kPa, Liquid; for viscosity: Capillary tube (Ostwald / Ubbelohde) method

Row | Compound | mass density [kg/m3] | viscosity [mPa·s]
1 | CCCCCl [1-chlorobutane] | 880.69 ± 0.61 | 0.4235 ± 0.0054
2 | CC(C)(C)O [2-methylpropan-2-ol] | 780.78 ± 0.65 | 4.384 ± 0.038
3 | CC(C)CO [2-methyl-1-propanol] | 797.77 ± 0.62 | 3.353 ± 0.027
4 | CCCCCC [hexane] | 655.07 ± 0.98 | 0.2949 ± 0.0048
